Literature values in patent publication US12557843B2, “Other than cannabinoids, flavonoids, and terpenes” (priority 2020, dated 2026).

Columns and labels:
acetylcholinesterase = acetylcholinesterase (Homo sapiens, UniProt P22303)
CB2 cannabinoid receptor = CB2 cannabinoid receptor (Homo sapiens, UniProt P34972)
[1] = test system: monoamine oxidase enzyme (MAO)

Chain of CB2 cannabinoid receptor (P34972 whole entry): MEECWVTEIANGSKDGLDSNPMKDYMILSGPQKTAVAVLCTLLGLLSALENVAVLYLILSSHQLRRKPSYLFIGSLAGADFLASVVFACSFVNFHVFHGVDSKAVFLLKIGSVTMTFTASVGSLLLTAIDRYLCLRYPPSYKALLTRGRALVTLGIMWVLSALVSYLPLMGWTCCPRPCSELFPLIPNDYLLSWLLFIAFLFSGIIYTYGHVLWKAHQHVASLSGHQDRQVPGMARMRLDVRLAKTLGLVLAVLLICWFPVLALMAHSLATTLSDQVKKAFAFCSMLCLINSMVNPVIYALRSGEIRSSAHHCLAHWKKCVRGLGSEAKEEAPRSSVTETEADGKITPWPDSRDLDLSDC
Chain of acetylcholinesterase (P22303 32-614, species assumed): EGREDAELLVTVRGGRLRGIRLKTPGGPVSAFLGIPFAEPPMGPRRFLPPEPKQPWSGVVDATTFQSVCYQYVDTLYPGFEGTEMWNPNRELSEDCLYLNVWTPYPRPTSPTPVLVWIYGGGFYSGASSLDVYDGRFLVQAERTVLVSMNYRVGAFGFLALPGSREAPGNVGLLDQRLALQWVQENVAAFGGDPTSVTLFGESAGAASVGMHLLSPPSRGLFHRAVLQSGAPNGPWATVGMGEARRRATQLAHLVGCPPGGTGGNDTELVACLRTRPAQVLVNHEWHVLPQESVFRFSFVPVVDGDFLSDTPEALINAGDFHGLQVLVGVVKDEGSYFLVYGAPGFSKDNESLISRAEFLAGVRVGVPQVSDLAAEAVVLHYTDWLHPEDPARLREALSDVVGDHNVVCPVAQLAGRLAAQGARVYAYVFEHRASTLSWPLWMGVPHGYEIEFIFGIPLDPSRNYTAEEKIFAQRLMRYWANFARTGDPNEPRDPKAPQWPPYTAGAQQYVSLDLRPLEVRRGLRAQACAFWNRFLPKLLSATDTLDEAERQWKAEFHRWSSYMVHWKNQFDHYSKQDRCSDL

CC1=CCC2CC1C2(C)C (stereo not drawn) [A-pinene, α-pinene]
acetylcholinesterase inhibition (acetylcholinesterase): acetylcholinesterase inhibitor

C=C1CC/C=C(\C)CC[C@@H]2[C@@H]1CC2(C)C [B-caryophyllene, β-caryophyllene]
effects proven in animal models (laboratory animals; β-caryophyllene, animal models, not yet in humans): anti-inflammatory and analgesic effects
CB2 cannabinoid receptor activity (CB2 cannabinoid receptor): CB2 cannabinoid receptor agonist

CC12CCC(CC1)C(C)(C)O2 [Eucalyptol, 1,8-cineol]
in vitro anti-leukaemia activity (leukaemia): in vitro anti-leukaemia properties

C=C(C)[C@H]1CC=C(C)CC1 [Limonene]
effects suggested by studies on laboratory animals (laboratory animals; limonene, rise of serotonin and dopamine in the brain): anxiolytic effects
apoptosis (cell death) (breast cancer cells): produces apoptosis

C=CC(C)(O)CCC=C(C)C (stereo not drawn) [Linalool]
effects in laboratory animals (laboratory animals; linalool, mediated by adenosine A2A and glutamate receptors): analgesic effects

C=CC(=C)CCC=C(C)C [Myrcene]
properties shown in studies on laboratory animals (laboratory animals; myrcene, laboratory animals): sedative, hypnotic, analgesic and muscle relaxant properties

O=c1cc(-c2ccc(O)cc2)oc2cc(O)cc(O)c12 [apigenin]
action on the GABA receptors (GABA receptors): anxiolytic and sedative

COc1cc(-c2cc(=O)c3c(O)c(C/C=C(\C)CCC=C(C)C)c(O)cc3o2)ccc1O [cannaflavin-A]
effect on PGE-2 (PGE-2): inhibits
anti-inflammatory power compared with aspirin (PGE-2; relative to aspirin): exponentially more powerful than aspirin

O=c1c(O)c(-c2ccc(O)c(O)c2)oc2cc(O)cc(O)c12 [quercitin, quercetin]
effect on monoamine oxidase enzyme (MAO) [1]: inhibits
